Results reported in patent US5530110A, “4-ethoxy-5-fluoro-2'-deoxyuridine” (City of Hope, priority 1994, dated 1996).
Like-named read-outs stand apart in the source and are kept apart here.

Experiments:
[1] = Hydrolysis of the alkoxy derivatives to FdU in aqueous solution; type: physicochemical; conditions: for conversion to FdU in aqueous solution / dependence of hydrolysis rate on hydroxide concentration: in words; for dependence of hydrolysis rate on hydroxide concentration: data not shown; for half-life at 150 µM: pH 11, 25°, 1.5×10^-4 M in unbuffered deionized water adjusted with NaOH or HCl, read-out: conversion half life (4→1) (converted)
Method: In aqueous solution, the 4-alkoxy derivatives (4) are converted to FdU (1). […] The reaction is both acid and base catalyzed. At pH 11, the half lives for the conversion are 3.3 and 12.5 hours, respectively for the methoxy (4a) and ethoxy (4b) derivatives.
Hydrolysis of the alkoxy derivatives (4a and 4b) Solutions of 4-methoxy (4a) and 4-ethoxy,5-fluoro, 2'-deoxyuridine (4b) (1.5×10^-4 M) were prepared in unbuffered, deionized water. The pH of the solutions was adjusted with the addition of 1N NaOH or 1N HCl. […] The UV spectrum obtained upon completion of the hydrolysis in both with both compounds 4a and 4b are indistinguishable from FdU^9. […] (data not shown).

[2] = Relative partition coefficients between 0.1M phosphate buffer, pH 7.0 and 1-octanol; type: physicochemical; conditions: for logD: phosphate buffer / 1-octanol
CCRF-CEM cells = test: Cytostatic activity (growth inhibition) of CCRF-CEM cells in culture; type: cell-based; conditions: Homo sapiens, 96 h
Method: Cell culture and cytostatic activity (growth inhibition): The human T-cell line CCRF-CEM was obtained from J. S. Holcenberg, Childrens Hospital of Los Angeles. Maintenance of cultures in RPMI 1640 medium and growth inhibition assays were carried out as previously described^24 except that iron-supplemented bovine calf serum was used routinely in place of dialyzed fetal bovine serum and inhibition of cell growth was based on the culture densities after four days without dilution of the cultures. […] Culture densities were also determined after three days to check that the cell growth continued in cultures without cytotoxic agents.
CCRF- CEM cells were a gift from Dr. John Holcenberg and were grown in suspension as previously described.

[3] = system: plasma thymidine phosphorylase; conditions: in words; cited from earlier work
[4] = AZT over dT; cited from earlier work
[5] = system: human erythrocytes and lymphocytes; conditions: in words; cited from earlier work
cellular DNA = conditions: cited from earlier work
thymidylate synthase = conditions: via kinase and deamination to FdUMP; in words; cited from earlier work
DNA 5-methylcytosine = conditions: in words; cited from earlier work
[6] = 0.1M phosphate buffer, pH 7.0 / 1-octanol, read-out: relative partition coefficient (converted)
[7] = CCRF-CEM growth inhibition, four days, triplicate wells, read-out: EC50

Compound	conversion to FdU in aqueous solution [1]	dependence of hydrolysis rate on hydroxide concentration [1]	half-life at 150 µM [1] [min]	lipophilicity relative to FdU ([2]; pH 7) [fold]	logD [2, 6]	EC50 (CCRF-CEM cells; [7]) [nM]	catabolism via plasma thymidine phosphorylase [3]	further results
CCOc1nc(=O)n([C@H]2C[C@H](O)[C@@H](CO)O2)cc1F [4-ethoxyFdU (4b), 4-Ethoxy, 5-fluoro, 2'-deoxyuridine]	converted quantitatively to FdU in aqueous solution	proportional to [^- OH]	750	14.7	-0.108	1800	–	half-life ([1]; water, pH 11, aqueous solution, read-out: half life for the conversion to FdU (converted)): 750 min
COc1nc(=O)n([C@H]2C[C@H](O)[C@@H](CO)O2)cc1F [4-methoxyFdU (4a), 4-Methoxy, 5-fluoro, 2'-deoxyuridine]	converted quantitatively to FdU in aqueous solution	proportional to [^- OH]	132	4.5	-0.62	1800	neither deoxycytidine derivatives^25 nor 4-methoxy-5-fluoro-2'deoxyuridine^26 are catabolized via this pathway	–
Cc1cn([C@H]2C[C@H](N=[N+]=[N-])[C@@H](CO)O2)c(=O)[nH]c1=O [AZT]	–	–	–	–	–	–	–	increased lipophilicity over dT [4]: 20 fold; cell entry [5]: can enter human erythrocytes and lymphocytes by nonfacilitated diffusion
Nc1nc(=O)n([C@H]2C[C@H](O)[C@@H](CO)O2)cc1F [FdC (5), 5-Fluoro, 2'-deoxycytidine]	–	–	–	–	-1.55	6.9	–	relation of DNA incorporation to cytotoxicity (cellular DNA): level of FdC incorporation is proportional to cytotoxicity; inhibition of thymidylate synthase (thymidylate synthase): inhibition of thymidylate synthase; decrease in DNA 5-methylcytosine levels (DNA 5-methylcytosine): dramatic decreases in DNA 5-methylcytosinelevels
O=c1[nH]c(=O)n([C@H]2C[C@H](O)[C@@H](CO)O2)cc1F [FdU (1), reference compound]	–	–	–	–	–	8.9	cleavage via plasma thymidine phosphorylase	logD ([2]; pH 7): -1.28
O=c1[nH]cc(F)c(=O)[nH]1 [fluorouracil, 5-fluorouracil, reference compound]	–	–	–	–	–	–	–	EC50 (CCRF-CEM cells; CCRF-CEM): 5000 nM
